Laboratory results taken from patent US20240274226A1, “MOLECULAR EVALUATION METHODS” (UNIVERSITY COLLEGE DUBLIN, priority 2021, published 2024).
Values joined by “and” are separate entries in the source; they are usually repeats but may differ in a detail not shown here. Equal values may be shown once.

Key:
[1] = system: SH-SY5Y-TrkA; experiment: cSTAR analysis of RPPA perturbation data (STV dot product P, DPD output S), TrkA cells; type: cell-based, human; conditions: ligand NGF, 45 minutes, calculated from RPPA data
Source text: (§1) Thus, we use this dimensionality reduced STV for estimating the network effects and biological outcomes of experimental perturbations. For each perturbation we determine a perturbation vector that connects the centroids of the point clouds that have been obtained before and after the perturbation. This vector changes the cell phenotype when it pushes the centroid of the original point cloud across the plane that separates different cell states, stabilizes a cell state when moving the centroid away from the separation plane, or has no effect when it is (nearly) parallel to the separation plane.
(§2) These outcomes can be quantified by determining the dot product (P) of the perturbation vector and the dimensionality reduced STV.
(§3) For a correct interpretation of perturbation data using the STV, we have to exclude the analytes that composed the modules of our core signaling network. Accordingly, the dimensionality of the molecular dataspace where the STV and perturbation vectors are calculated is reduced from 115 to 70, due to 45 analytes from Table S1A, related to the five proteins flagged in Table S3, being allocated to core network components, leaving the remaining 70 analytes to defined the reduced dimensionality dataspace.
(§4) Let A with the radius-vector {right arrow over (x)}A be the centroid of the point cloud Ai, corresponding to the unperturbed state 1. Let Apert with the radius-vector {right arrow over (x)}Apert be the centroid of the point cloud (Ai^pert), corresponding to the perturbed state 1. Then the perturbation vector is defined as,
(§5) The projection P of the perturbation vector {right arrow over (P)} on the STV ({right arrow over (s)}) is obtained as a dot product of these two vectors,
(§6) In the molecular dataspace, we consider the STV as a vector {right arrow over (s)} of unit length directed from a centroid of a differentiation TrkA point cloud to a centroid of a proliferation TrkB point cloud. We now define the output of the DPD module as the S value,
(§7) In this definition, the direction of the vector {right arrow over (n)}, which is orthogonal to the separation hyperplane, […]. Then, the DPD value (S) is positive for proliferation TrkB points and negative for differentiation TrkA points.
(§8) Using the STV ({right arrow over (s)}), a perturbation vector ({right arrow over (P)}) and the unit length vector ({right arrow over (n)}) orthogonal to the separation hyperplane, we can calculate how the DPD value changes following each inhibitor perturbation. The DPD values, determined for the centroids of unperturbed (A) and perturbed (Apert) states, S and Spert, respectively, are the following (see Eq. 9),
(§9) In order to reconstruct the posterior network, we used the drug perturbations described in Table 1, measuring 10 and 45 minute timepoints in TrkA and TrkB cells stimulated with NGF or BDNF, respectively.

[2] = system: SH-SY5Y-TrkB; experiment: cSTAR analysis of RPPA perturbation data (STV dot product P, DPD output S), TrkB cells; type: cell-based, human; conditions: for Change in the DPD output ΔS / DPD output S: SH-SY5Y-TrkB, ligand BDNF, 45 minutes, calculated from RPPA data
Source text: as §1, §2
TrkB cells were treated with the p90RSK inhibitor BI-D1870. Data points were acquired corresponding to 45 min 100 ng/ml GF stimulation, and these were projected into the first 3 principal components in order to calculate the point cloud centroids. For clarity, only the centroids are shown in FIG. 7, corresponding to: TrkA 45 minute NGF, TrkB 45 minute BDNF before perturbation, and the perturbed centroid TrkB RSKi 45 minute BDNF.
as §3, §4, §5, §6, §7, §8, §9

[3] = system: SH-SY5Y-TrkB; experiment: Differentiation of TrkB cells, live cell images at 72 hours; type: cell-based, human; conditions: for Experimentally measured percentage of differentiated cells: SH-SY5Y-TrkB, ligand BDNF; for Experiment (biological outcome): SY5Y-TrkB ± BDNF
Method: FIG. 45 is a live cell image of TrkB cells stimulated with BDNF taken at 72 hours. FIG. 46 is a live cell image of BDNF-stimulated TrkB cells treated with 0.2 μM Trametinib taken at 72 hours. FIG. 47 is a live cell image of BDNF-stimulated TrkB cells treated with 2.5 μM Gefitinib taken at 72 hours. […] FIG. 49 is an additional experiment, being a live cell image of BDNF-stimulated TrkB cells treated with a combination of 2.5 μM Gefitinib and 0.05 μM Trametinib taken at 72 hours.

[4] = system: SH-SY5Y-TrkA; experiment: Differentiation of TrkA cells, live cell images at 72 hours; conditions: for Experimentally measured percentage of differentiated cells: SH-SY5Y-TrkA, ligand NGF; for Experiment (biological outcome): SY5Y-TrkA ± NGF
Method: SH-SY5Y cells stably expressing TrkA or TrkB receptors were stimulated with 100 ng/ml NGF or BDNF, respectively. Differentiation and proliferation were assessed 72 hours after growth factor treatment.
In FIGS. 35A-F, the live cell images are accompanied by bar plots showing the percentage of differentiated cells. The percentages were obtained by examining three images for each set of conditions, and counting the total number of cells and the number of differentiated cells.
FIG. 52 is a bar plot showing the percentage of differentiated cells for different treatments, measured by counting cells in images and calculating the ratio of differentiated cells to total cells.

[5] = system: TrkB cells; experiment: RPPA phosphoproteomics (raw fluorescent intensity) in TrkB cells stimulated with ligand and treated with inhibitors; type: cell-based, human; conditions: No GF stimulation
Source text: (§10) Experiments used a custom made RPPA with 115 validated antibodies listed in Table S1A below to interrogate the activities of signaling pathways involved in TrkA/B signaling (Schramm et al., 2005), including MAPK (RAS-ERK, JNK, p38), PI3 kinase (AKT, mTORC1/2), JAK-STAT, PLCγ-PKC, TGFβ-SMAD, Wnt, cyclic-AMP, cell cycle (CDK1, Cyclins, Rb, p53, p21^WAF), apoptosis (BAX, BCL2, BCLx, Caspase 3), transcription factor (MYC, NFκB, JUN), and tyrosine kinase (SRC, EGFR, PDGFR, IGFR) pathways. In addition to the 115 antibodies, three controls are also included, Mouse 1, 2 and 3.
(§11) For each antibody, RPPA phosphoproteomics data was collected, measured as raw fluorescent intensity values in TrkA and TrkB cells stimulated with a ligand and treated with different inhibitors. A sample of the data is reproduced in Table S1B below, showing the measured fluorescent intensity values for a small sample of antibodies and a small sample of treatment and stimulation conditions. The full data set, including replicated experiments, contains 118 rows (one per antibody) and 144 columns (each containing 118 measurements and relating to an experimental set of treatment and stimulation conditions, which include replicated experiments).
(§12) In terms of the computational approach to processing the acquired data, each analyte level was first normalized on the GAPDH level, and then on the value of the same analyte in the absence of inhibitors and ligand stimulation to obtain fold-changes.
(§13) FIGS. 25-30 show the simulated time courses with the experimental data points (dots with error bars) imposed on the model predictions (curves) for a number of inhibitors: S6K inhibitor (1 μM) FIG. 25A-F; TRK inhibitor (5 μM) FIG. 26A-F; MEK inhibitor (0.5 μM) FIG. 27 A-F; AKT inhibitor (1 μM) FIG. 28A-F; JNK inhibitor (1 μM) FIG. 29A-F; and RSK inhibitor (1 μM) FIG. 30A-F. The TrkA and TrkB cells were treated with the respective inhibitor, and stimulated with 100 ng/ml NGF and BDNF, respectively. Dashed lines are the time courses in the absence of inhibitor. Error bars represent SEM and are calculated using 3 biological replicates.

[6] = system: TrkA cells; experiment: RPPA phosphoproteomics (raw fluorescent intensity) in TrkA cells stimulated with ligand and treated with inhibitors; type: cell-based, human
Source text: as §10, §11, §12, §13

[7] = system: phospho-Trk; experiment: Phospho-Trk activity by Western blotting, TrkA cells; type: cell-based, human; conditions: single replicates
Method: (§14) These antibodies detect phosphorylation sites that change protein activities or protein abundances. We measured pathway activities in untreated cells and cells treated with NGF (TrkA ligand) or BDNF (TrkB ligand) for 10 or 45 minutes. After normalization we calculated the fold changes in protein phosphorylation levels or abundances producing a data point for each protein.

[8] = system: phospho-Trk; experiment: Phospho-Trk activity by Western blotting, TrkB cells; type: cell-based, human; conditions: single replicates
Method: as §14

CC[n+]1c(/C=C/N(C)c2ccccc2)n(-c2ccccc2)c2ccc(-c3nc4ccccc4s3)cc21.[I-] [AKT inhibitor, AKT inhibitor IV]
Change in the DPD output ΔS [1]: −1.3 ± 0.6
DPD output S [1]: −3.6 ± 0.5
Change in the DPD output ΔS [2]: −1.5 ± 1.0
DPD output S [2]: 4.3 ± 0.8
Experimentally measured percentage of differentiated cells ([3]; 72 hours): 34.3% ± 0.8%
Experimentally measured percentage of differentiated cells ([4]; 72 hours): 62% ± 3%

COc1cc2ncnc(Nc3ccc(F)c(Cl)c3)c2cc1OCCCN1CCOCC1 [Gefitinib]
differentiation of TrkB cells (live cell images) ([3]; BDNF-stimulated, 72 hours, combination 1.25 μM Gefitinib + 0.1 μM Trametinib or 2.5 μM + 0.05 μM, alone 2.5 μM Gefitinib, 0.2 μM Trametinib): not with either inhibitor applied separately

NGF: TrkA ligand, growth factor
cell fate after growth factor treatment ([4]; TrkA cells, 100 ng/ml, 72 hours): differentiation

CC(C)CCN1c2nc(Nc3cc(F)c(O)c(F)c3)ncc2N(C)C(=O)C1C (stereo not shown) [p90RSK inhibitor, BI-D1870]
Change in the DPD output ΔS [1]: 1.8 ± 0.3
DPD output S [1]: −0.54 ± 0.13
Change in the DPD output ΔS [2]: −1.7 ± 0.6
DPD output S [2]: 4.0 ± 0.2
Perturbation vector component collinear with the STV ([2]; TrkB cells, 45 min 100 ng/ml GF stimulation): moves the proliferation state towards differentiation
Bad P Ser112 raw fluorescent intensity (RPPA) [5]: 0.103
Bad P Ser136 raw fluorescent intensity (RPPA) [5]: 0.07225
Bak raw fluorescent intensity (RPPA) [5]: 0.1888
CrkL P Tyr207 raw fluorescent intensity (RPPA) [5]: 0.2852
HSP27 (HSPB1) P Ser78 raw fluorescent intensity (RPPA) [5]: 0.3221
JAK1 raw fluorescent intensity (RPPA) [5]: 0.1064
Experimentally measured percentage of differentiated cells ([3]; 72 hours): 29% ± 4%
Experiment (biological outcome) [3]: weakly increasing differentiation
Experimentally measured percentage of differentiated cells ([4]; 72 hours): 37.0% ± 2.4%
Experiment (biological outcome) [4]: decreasing differentiation

CC(=O)Nc1cccc(-n2c(=O)n(C3CC3)c(=O)c3c(Nc4ccc(I)cc4F)n(C)c(=O)c(C)c32)c1 [MEK inhibitor, Trametinib]
Change in the DPD output ΔS [1]: −0.7 ± 0.4
DPD output S [1]: −3.0 ± 0.3
Change in the DPD output ΔS [2]: 0.35 ± 0.72
DPD output S [2]: 6.1 ± 0.4
Experimentally measured percentage of differentiated cells ([3]; 72 hours): 20% ± 1%
Experimentally measured percentage of differentiated cells ([4]; 72 hours): 48% ± 3%
Experiment (biological outcome) [4]: No effect
Bad P Ser112 raw fluorescent intensity (RPPA) ([6]; 45 min NGF stimulation): 0.2853
Bad P Ser136 raw fluorescent intensity (RPPA) ([6]; 45 min NGF stimulation): 0.07024
Bak raw fluorescent intensity (RPPA) ([6]; 45 min NGF stimulation): 0.0709
CrkL P Tyr207 raw fluorescent intensity (RPPA) ([6]; 45 min NGF stimulation): 0.1174
HSP27 (HSPB1) P Ser78 raw fluorescent intensity (RPPA) ([6]; 45 min NGF stimulation): 0.04349
JAK1 raw fluorescent intensity (RPPA) ([6]; 45 min NGF stimulation): 0.0516

Cn1cc(-c2ccc(F)c(C(F)(F)F)c2)nc1C1CCN(c2ncnc3[nH]ncc23)CC1 [p70S6K inhibitor, LY2584702]
Change in the DPD output ΔS [1]: −1.5 ± 0.4
DPD output S [1]: −3.8 ± 0.3
Change in the DPD output ΔS [2]: −7.8 ± 0.6
DPD output S [2]: −2.10 ± 0.05
Experimentally measured percentage of differentiated cells ([3]; 72 hours): 45% ± 3%
Experimentally measured percentage of differentiated cells ([4]; 72 hours): 41% ± 5%
Bad P Ser112 raw fluorescent intensity (RPPA) ([6]; 10 min NGF stimulation): 0.1181
Bad P Ser136 raw fluorescent intensity (RPPA) ([6]; 10 min NGF stimulation): 0.109
Bak raw fluorescent intensity (RPPA) ([6]; 10 min NGF stimulation): 0.211
CrkL P Tyr207 raw fluorescent intensity (RPPA) ([6]; 10 min NGF stimulation): 0.2814
HSP27 (HSPB1) P Ser78 raw fluorescent intensity (RPPA) ([6]; 10 min NGF stimulation): 0.2939
JAK1 raw fluorescent intensity (RPPA) ([6]; 10 min NGF stimulation): 0.1005

Cc1cc(NC(=O)c2cccc(NC(=O)/C=C/CN(C)C)c2)ccc1Nc1nccc(-c2cccnc2)n1 [JNK inhibitor, JNK-IN-8]
Change in the DPD output ΔS [1]: −0.07 ± 0.75
DPD output S [1]: −2.4 ± 0.7
Change in the DPD output ΔS [2]: 0.23 ± 0.82
DPD output S [2]: 5.95 ± 0.56
Experimentally measured percentage of differentiated cells ([3]; 72 hours): 25% ± 4%
Experiment (biological outcome) [3]: No effect
Experimentally measured percentage of differentiated cells ([4]; 72 hours): 45% ± 5%
Experiment (biological outcome) [4]: No effect

Oc1c2ccccc2c2c3c(cccc13)N=N2 [Trk inhibitor, SP600125]
phospho-Trk ([7]; 10 min ligand stimulation): 0.8871 and 0.6065
phospho-Trk ([7]; 45 min ligand stimulation): 0.724
Change in the DPD output ΔS [1]: −2.53 ± 0.35
DPD output S [1]: −4.84 ± 0.16
Change in the DPD output ΔS [2]: −9.6 ± 0.6
DPD output S [2]: −3.84 ± 0.03
phospho-Trk ([8]; 10 min ligand stimulation): 3.716 and 1.408
phospho-Trk ([8]; 45 min ligand stimulation): 3.539
Experimentally measured percentage of differentiated cells ([3]; 72 hours): 55% ± 4%
Experimentally measured percentage of differentiated cells ([4]; 72 hours): 64.4% ± 2.5%

B1: BDNF: TrkB ligand, growth factor (protein, UniProt P23560 19-247, looked up)
Neurotrophic factor BDNF …: APMKEANIRGQGGLAYPGVRTHGTLESVNGPKAGSRGLTSLADTFEHVIEELLDEDQKVRPNEENNKDADLYTSRVMLSSQVPLEPPLLFLLEEYKNYLDAANMSMRVRRHSDPARRGELSVCDSISEWVTAADKKTAVDMSGGTVTVLEKVPVSKGQLKQYFYETKCNPMGYTKEGCRGIDKRHWNSQCRTTQSYVRALTMDSKKRIGWRFIRIDTSCVCTLTIKRGR
cell fate after growth factor treatment ([3]; TrkB cells, 100 ng/ml, 72 hours): proliferation
